Patent US6867043B2, “Peptides that deliver antisense oligonucleotides which downregulate protein expression in cells” (The Trustees of Columbia University in the City of New York, priority 2001, dated 2005)
Oligonucleotides are written 5' to 3', each unit as a sugar letter and its base; * is a phosphorothioate linkage, no mark a phosphodiester; rarer units and linkages stand in square brackets, end groups in braces. Plain capitals give the bases only. {Fluorescein} = fluorescein label; d = 2'-deoxy (DNA)

What was measured:
[1] = test system: PKC-α; assay: Western blot of PKC-α protein expression in T24 cells; format: cell-based; settings: for inhibition of PKC-α protein expression (antisense activity), in words: short-peptide experiments, 2 μM oligonucleotide, 25 μM chloroquine preincubation
Method: (§1) Experiments using the protamine-NLS peptides to deliver antisense oligonucleotides were performed in T24 bladder carcinoma and PC-3 prostate carcinoma cells. In addition to the 20-mer ISIS 3521, the 18-mer phosphorothioate oligonucleotide G3139 (SEQ ID NO:6) was also employed. G3139 is targeted to the first six codons of the human bcl-2 open reading frame. […] The expression of PKC-α protein was assayed by Western blotting after 24 hr, while the expression of bcl-2 protein in PC3 cells was assayed similarly after a further 48 hr incubation in RPMI media containing 10% FBS. In both cases, the incubations were performed in the continuous presence of the peptide/oligonucleotide complexes.
Treatment of cells with oligonucleotide-peptide complexes: Cells were grown in six-well plates until 65-75% confluent. […] The solution was mixed gently and incubated at room temperature for 30 min to allow oligonucleotide-peptide complexes to form. […] The cells were then incubated at 37° C. for 24 hr (for PKC-α) or re-fed with complete McCoy's 5A media containing 10% FBS and allowed to incubate for an additional 72 hr (for bcl-2) before cell lysis and extract preparation.
(§2) Western Blotting: Cells were treated with peptide-oligodeoxynucleotide complexes, scraped, washed with cold PBS and then extracted in […] of lysis buffer [50 mM Tris-HCl, pH 7.5; 1% NP-40; 0.25% sodium deoxycholate; 150 mM NaCl; 1 mM EGTA; 50 μg/mL Pefablock™ SC; 15 μg/mL aprotinin, leupeptin, chymostatin, and pepstatin A; 1 mM Na3VO4; 1 mM NaF] at 4° C. for 1 hr. Cell debris was removed by centrifugation at 14,000×g for 20 min at 4° C. Protein concentrations were determined using the Bio-Rad protein assay system (Bio-Rad Laboratories, Richmond, Calif.).
Aliquots of cell extracts containing 20-30 μg of protein were resolved by 10% or 12% SDS-polyacrylamide gel electrophoresis and transferred to Hybond ECL filter paper (Amersham, Arlington Heights, Ill.). […]

[2] = test system: PKC-α; assay: Western blot of PKC-α protein expression in PC3 cells; format: cell-based; settings: for inhibition of PKC-α protein expression, in words: long-peptide experiments, ISIS 3521 0.25-2 μM, ISIS 4559 2 μM, 25 μM chloroquine pre-treatment required; for inhibition of PKC-α protein expression (antisense activity), in words: short-peptide experiments, 2 μM oligonucleotide, 25 μM chloroquine preincubation
Method: as §1
Treatment of cells with oligonucleotide-peptide complexes: Cells were grown in six-well plates until 65-75% confluent. The peptides, at the stated peptide/oligonucleotide molar ratios, were diluted in 500 μL of Opti-MEM medium and oligonucleotide was then added up to the required concentration of 2 μM. The solution was mixed gently and incubated at room temperature for 30 min to allow oligonucleotide-peptide complexes to form. […] The cells were then incubated at 37° C. for 24 hr (for PKC-α) or re-fed with complete McCoy's 5A media containing 10% FBS and allowed to incubate for an additional 72 hr (for bcl-2) before cell lysis and extract preparation.
as §2
Aliquots of cell extracts containing 20-30 μg of protein were resolved by 10% or 12% SDS-polyacrylamide gel electrophoresis and transferred to Hybond ECL filter paper (Amersham, Arlington Heights, Ill.). Filters were incubated at room temperature for 1-2 h in Blotto A [5% non-fat milk powder in TBS-T:10 mM Tris-HCl, pH 8.0, 150 mM NaCl, 0.05% Tween 20 (for PKC-α) and 5% BSA in PBS, 0.5% Tween (for Bcl-2)] and then probed overnight at 4° C. with 1:1000 dilution of anti-PKC- or 1:500 dilution of anti-Bcl-2 in Blotto A. After washing in TBS-T or PBS-T buffer (3×7 min, room temperature), filters were incubated for 1 h at room temperature in 5% milk/TBS-T or 5% milk/PBS-T buffer containing a 1:3,000 dilution of peroxidase-conjugated anti-mouse secondary antibody. […]

[3] = test system: T24 bladder carcinoma cells; assay: MTT cellular viability assay of paclitaxel-treated T24 cells; format: cell-based; settings: 3 days paclitaxel, 24 hours treatment, 8 μM peptide / 2 μM oligonucleotide, 25 μM chloroquine pretreatment
Method: As a measure of the effectiveness of the peptide-delivered antisense inhibition of PKC-α the cells treated with peptide were exposed to paclitaxel, a compound commonly used in cancer therapy to inhibit microtubule depolymerization.
Cellular viability assay: Cells were seeded in 96-well tissue culture plates and treated the next day with oligonucleotide-peptide complexes for 24 hr. […] The cells were incubated for 4 hr at 37° C., 5% CO2 with 0.5 mg/mL MTT in complete media. An equal volume of solubilization solution (10% SDS in 0.01 M HCl) was then added and allowed to incubate overnight at 37° C. After the formazan crystals were dissolved, the plates were read on a Dynatech MR600 Microplate Reader at 540 nm.
Statistical analysis of the results was performed using the Analysis ToolPack provided by Microsoft Excel. A Student's two-sample t-test, assuming unequal variances, was used to determine the equality of the means of two samples. The confidence level was 0.05.

[4] = test system: T24 cells; assay: Fluorescence confocal microscopy of oligonucleotide delivery to the cell nucleus; format: cell-based; settings: 2 μM 5′-fluorescein-labeled ISIS 3521; 8 μM and 6 μM peptide; T24 cells pretreated with 25 μM chloroquine; 24 hr
Method: The ability of the protamine-NLS peptides to deliver the oligonucleotides into the cell nucleus was evaluated by fluorescence confocal microscopy.
Confocal microscopy: Cells were seeded in glass bottom microwells (MatTec Corp., Mass.), and treated with peptide-oligodeoxynucleotide complexes at 37° C. for 24 hr. Cellular internalization was examined using an LSM 410 laser scanning confocal microscope (Zeiss, Thornwood, N.Y.) equipped with a krypton/argon laser and attached to a Zeiss Axiovert 100 TV microscope. The 515-540 nm bandpass for fluorescein was used. Z-series were taken of a 1 to 2 micron optical section at 2 μm intervals. For measurements, a maximum projection of all sections was employed.

[5] = test system: bcl-2; assay: Western blot of bcl-2 protein expression in PC3 cells; format: cell-based, human; settings: PC-3 cells; short-peptide experiments; 25 μM chloroquine pretreatment
Method: as §1
Treatment of cells with oligonucleotide-peptide complexes: Cells were grown in six-well plates until 65-75% confluent. […]
Western Blotting: Cells were treated with peptide-oligodeoxynucleotide complexes, scraped, washed with cold PBS and then extracted in […] of lysis buffer [50 mM Tris-HCl, pH 7.5; 1% NP-40; 0.25% sodium deoxycholate; 150 mM NaCl; 1 mM EGTA; 50 μg/mL Pefablock™ SC; 15 μg/mL aprotinin, leupeptin, chymostatin, and pepstatin A; 1 mM Na3VO4; 1 mM NaF] at 4° C. for 1 hr. […] Protein concentrations were determined using the Bio-Rad protein assay system (Bio-Rad Laboratories, Richmond, Calif.). […]

[6] = target: ISIS 3521; assay: Fluorescence titration: quenching of peptide Trp fluorescence by bound oligonucleotide; format: binding
Method: The interaction of ISIS 3521 (SEQ ID NO:5), a 20mer phosphorothioate antisense oligonucleotide, with the short and long protamine-NLS peptides (s-protamine-NLS and l-protamine-NLS) was evaluated by fluorescence spectroscopy. The peptide contains a single Trp residue (position 8 of the short peptide; SEQ ID NO:2) which can be excited at 290 nm and emits fluorescent light at 330 nm. The ability of a bound oligonucleotide to quench this fluorescent emission constitutes a relatively sensitive probe for the monitoring of molecular interactions.
The titration of a 5 μM solution of s-protamine-NLS (SEQ ID NO:2) with increasing concentrations of ISIS 3521 (SEQ ID NO:5), both in PBS and in Opti-MEM (without serum, to mimic transfection conditions), led to dramatic fluorescence quenching. At least two oligonucleotide binding modes can be easily discerned: At low oligonucleotide concentration (relative to s-protamine-NLS peptide) a plot of the decrease in fluorescence (due to quenching) vs. oligonucleotide concentration fits an equation of the Michaelis-Menton type. […] However, as oligonucleotide concentration is increased, Trp fluorescence continues to decline, but a similar plot no longer fits a Michaelis-Menton-type equation, and the binding becomes increasingly complex. Trp fluorescence is finally completely quenched (i.e., 100%) at a 4:1 molar ratio of peptide/oligonucleotide. […]

Row | Compound | inhibition of PKC-α protein expression (antisense activity), in words [1] | inhibition of PKC-α protein expression, in words [2] | inhibition of PKC-α protein expression (antisense activity), in words [2] | cellular viability (reduction in cell proliferation by MTT assay), in words [3] | delivery of fluoresceinated oligonucleotide to the cell nucleus [4] | other results
1 | 5′-GTTCTCGCTGGTGAGTTTCA-3′ (antisense dG*dT*dT*dC*dT*dC*dG*dC*dT*dG*dG*dT*dG*dA*dG*dT*dT*dT*dC*dA) [ISIS 3521] | completely ineffective | did not have antisense effects | completely ineffective | no effect on cell viability | – | –
2 | 5′-fluorescein-labeled ISIS 3521: ISIS 3521 labeled with fluorescein at the 5′ end, for confocal microscopy (antisense {Fluorescein}-dG*dT*dT*dC*dT*dC*dG*dC*dT*dG*dG*dT*dG*dA*dG*dT*dT*dT*dC*dA) | – | – | – | – | internalized poorly | –
3 | CCN(CC)CCCC(C)Nc1ccnc2cc(Cl)ccc12 (stereo not drawn) [chloroquine] | did not downregulate PKC-α expression | – | did not downregulate PKC-α expression | – | – | inhibition of Bcl-2 expression (antisense activity), in words [5]: totally inactive
4 | RRRRRRWGRRRRRRPKKKRKV [s-protamine-NLS, peptide with shorter protamine fragment and SV40 large T-antigen nuclear localization signal] | – | – | – | no effect on cell viability | effectively delivered fluoresceinated oligonucleotide to the cell nucleus | Kd ([6]; 5 μM s-protamine-NLS titrated with ISIS 3521, low oligonucleotide concentration, R^2=0.99, read-out: Kd from Lineweaver-Burke (double reciprocal) plot of fluorescence quenching): 0.08 µM; Trp fluorescence quenched ([6]; at a 4:1 molar ratio of peptide/oligonucleotide): 100%
5 | l-protamine-NLS: long Arg-rich protamine fragment peptide with C-terminal SV40 large T-antigen nuclear localization signal (RRRRSRRRRRRFGRRRRRRVWRRRRPKKKRKV; NOVEL PEPTIDE - SV40/PROTAMINE SOURCE) | – | no effect | – | – | – | inhibition of PKC-α protein expression, in words ([1]; long-peptide experiments, ISIS 3521 0.25, 0.5, 1 μM, ISIS 4559 2 μM, chloroquine not required): no effect
6 | s-protamine-scrambled NLS: control peptide: short protamine fragment with scrambled NLS sequence (RRRRRRWGRRRRRRPKGKRKV; CONTROL PEPTIDE) | – | – | – | – | also promotes the delivery of the oligonucleotide to the nucleus | –
